{
  "source": "patent US20100137344A1",
  "about": "“INDUCTION OF ANALGESIA IN NEUROPATHIC PAIN” (University Court of the University of Edinburgh, priority 2006, published 2010)",
  "system": "rats with chronic constriction injury (CCI) to sciatic nerve",
  "experiment": "Intrathecal application in CCI rats, behavioural reflex testing (PWL, PWT)",
  "format": "in vivo, rat",
  "details": "for duration of significant reversal of sensitised responses: (−)-menthol 200 nmol; for EC50: Rattus norvegicus, central",
  "experimental": "Pain models were generated under halothane anaesthesia (Zeneca, Cheshire, UK). For the chronic constriction injury (CCI) model of neuropathic pain, four ligatures were tied loosely to constrict the sciatic nerve at mid-thigh level (as described previously^[39]). An inflammatory pain model was generated by injecting 100 μl of Complete Freund's Adjuvant (CFA, Sigma-Aldrich Ltd) into the ventral surface of the right hindpaw^[39]. A model of peripheral demyelination-induced pain was produced by focal application of lysolecithin to the sciatic nerve^[40]. Peak behavioural sensitisation was observed post-surgically between days 10-16 for CCI, 1-3 for CFA, and 7-14 for lysolecithin, when pharmacological and electrophysiological experiments and tissue removal were conducted.\nThermal sensitivity was assessed by measuring paw withdrawal latency (PWL, s) in response to a noxious thermal stimulus (Hargreaves' thermal stimulator, Linton Instrumentation, Diss, UK) directed to the hindpaw mid-plantar glabrous surface. Mechanical sensitivity was recorded as the paw withdrawal threshold (PWT, mN/mm^2) to calibrated von Frey filaments (Stoelting, Ill., US), as previously described^[39]. Sensitivity to noxious cold was assessed by placing animals in a waterbath with an aluminium floor containing 1 cm deep 4° C. water and counting the time the paw was held suspended over a 20 s period.\nThe following drugs were applied intrathecally in a 50 μl volume of saline-based vehicle at 37° C.: icilin (2.5-200 μM in saline with 0.2% dimethylformamide, DMF), LY 341495 (100 μM in saline), UBP 1112 (200 μM in saline), 2R,4R-APDC ((2R, 4R)-4-aminopyrrolidine-2,4-dicarboxylate), 300 μM in saline), ACPT-III ((1R,3R,4S)-1-aminocyclopentane-1,3,4-tricarboxylic acid), 3 mM in saline), AP-4, ((L-(1)-2-amino-4-phosphonobutyric acid), 3 mM in saline), naloxone (0.5 mM in saline), NMDA (75 μM in saline) and ACPC (1-aminocyclopropanecarboxylic acid, 15 μM in saline) (Tocris Cookson, Bristol, UK), (−)-menthol (1R,2S,5R-(−)-menthol, 4 mM in saline), cinnamaldehyde (1.5 mM in saline) and Ruthenium Red (5 μM in saline) (Sigma-Aldrich Co. Ltd, UK) and allicin (0.5 mM in saline with 0.5% DMF) and diallyl disulphide (DADS, 1 mM in saline with 0.5% DMF) (LKT Laboratories Inc., St Paul, Minn., USA). Drugs were injected into the L5/6 intrathecal space under brief halothane anaesthesia, using a 25-gauge needle microsyringe (BD Biosciences, Oxford, UK), as described previously^[39] in animals that were at peak levels of behavioural sensitisation. Behavioural reflex testing commenced 15 min following injection to allow recovery from anaesthesia^[40,41,42] and continued every 5 min thereafter until readings returned to baseline levels (n=6 in each case). We, and others^[40,41,42] find complete recovery from anaesthetic by 15 minutes. All appropriate controls were carried out to eliminate the possibility of effects due to vehicle or to injection procedure.\nThe TRPM8 channel activators, icilin and (−)-menthol were tested in CCI and naïve animals. The effects of icilin were additionally assessed in animals with CFA-induced inflammation or with lysolecithin-induced demyelination. Icilin was also co-administered with the μ-opioid receptor antagonist naloxone, the Group II metabotropic glutamate receptor (mGluR) antagonist, LY 341495, or the Group III mGluR antagonist, UBP 1112. The effects of these antagonists alone as well as effects of the Group II mGluR agonist, 2R,4R-APDC and the Group III mGluR agonists, ACPT-III and AP-4, were assessed in CCI animals. The TRPA1 channel activator, cinnamaldehyde, alone and with icilin, was tested in CCI animals and in naïve animals. Further TRPA1 channel activators, allicin and diallyl disulphide were assessed in naïve animals. Both icilin and cinnamaldehyde effects in CCI animals were also investigated in the additional presence of Ruthenium Red.",
  "key": {"[1]": {"details": "(−)-menthol 200 nmol intrathecal alone, 20-30 minutes post-injection"}, "[2]": {"details": "intrathecal, non-linear curve-fitting"}},
  "note": "Like-named read-outs stand apart in the source and are kept apart here.",
  "data": [
    {"smiles": "CC(C)[C@@H]1CC[C@@H](C)C[C@H]1O", "note": "[(−)-menthol, 1R,2S,5R-(−)-menthol]", "values": [
      {"measurement": "mean percentage reversal of sensitisation, PWL", "setting": "[1]", "result": "86.1±8.1", "unit": "%"},
      {"measurement": "mean percentage reversal of sensitisation, PWT", "setting": "[1]", "result": "80.6±4.2", "unit": "%"},
      {"measurement": "duration of significant reversal of sensitised responses", "setting": "intrathecal, icilin 10 nmol", "result": "35 to 40", "unit": "min"}
    ]},
    {"smiles": "O=C1NC(c2cccc([N+](=O)[O-])c2)=CCN1c1ccccc1O", "note": "[icilin, 1-(2′-hydroxyphenyl)-4-(3″-nitrophenyl)-1,2,3,6-tetrahydropyrimidin-2-one]", "values": [
      {"measurement": "Ipsilateral PWL", "setting": "CCI, NMDA/ACPC in the additional presence of icilin 10 nmol", "result": "14.9 ± 0.6", "unit": "s"},
      {"measurement": "Ipsilateral PWT", "setting": "CCI, NMDA/ACPC with co-injection of icilin 10 nmol", "result": "3482.7±174.3", "unit": "mN/mm^2"},
      {"measurement": "Mean % reversal of mechanical sensitisation (after 15-30 mins)", "setting": "CCI, icilin 10 nmol, i.t.", "result": "76.8 ± 5.3", "unit": "%"},
      {"measurement": "Mean % reversal of thermal sensitisation (after 15-30 mins)", "setting": "CCI, icilin 10 nmol, i.t.", "result": "84.7 ± 6.0", "unit": "%"},
      {"measurement": "PWL (s) difference from control (+ icilin)", "setting": "CCI, icilin 10 nmol, i.t.", "result": "0.9 ± 1.2", "unit": "s"},
      {"measurement": "PWT (mN/mm^2) difference from control (+ icilin)", "setting": "CCI, icilin 10 nmol, i.t.", "result": "775.4 ± 467.7", "unit": "mN/mm^2"},
      {"measurement": "EC50", "setting": "intrathecal, non-linear curve-fitting, read-out: EC50 (dose for 50% of maximal effect), PWL", "result": "0.17 ± 0.02", "unit": "nM"},
      {"measurement": "EC50", "setting": "intrathecal, non-linear curve-fitting, read-out: EC50 (dose for 50% of maximal effect), PWT", "result": "0.31 ± 0.02", "unit": "nM"},
      {"measurement": "duration of significant reversal of sensitised responses", "setting": "intrathecal, icilin 10 nmol", "result": "up to 55 min"},
      {"measurement": "maximal effect, reversal of sensitisation, PWL", "setting": "[2]", "result": "91.6±9.9", "unit": "%"},
      {"measurement": "maximal effect, reversal of sensitisation, PWT", "setting": "[2]", "result": "82.6±6.8", "unit": "%"},
      {"measurement": "dose by which analgesic effects were statistically significant", "setting": "intrathecal, thermal and mechanical tests, nerve injury side", "result": 0.125, "unit": "nmol"}
    ]}
  ]
}
